Source: US4826968A, “S-alkylated coenzyme A with effect on polyamine acetylase” (Research Corporation, priority 1985, dated 1989)
One block for each compound: values may come before it.

How the values were obtained:
[1] = target: T1, spermidine/spermine N^1 -acetyltransferase (Rattus norvegicus, UniProt Q6P9U6); assay: Cytosolic spermidine acetyltransferase assay ([14C]acetyl Coenzyme A, cellulose phosphate paper); assay type: biochemical; conditions: for relative effectiveness in inhibiting the acetylation of spermidine and spermine: inhibitors compared with one another; for inhibitory activity towards spermidine/spermine N^1 -acetyltransferase / potency relative to the sym-norspermidine derivative: FIG. 2
T1 construct: Cytosolic spermidine acetyltransferase activity was extracted from the livers of male Sprague-Dawley rats; from tissue; host or cells: liver of male Sprague-Dawley rats, 6 h after intraperitoneal carbon tetrachloride; cytosolic extract
Description: Spermidine acetyltransferase activity was assayed in a volume of 100 μl containing 100 μg of extract protein, 300 nmol spermidine, 0.8 nmol (40 nCi) [1^14 C] acetyl Coenzyme A and 10 μmol tris-HCl (pH 7.8). The reaction was allowed to proceed at 30° C. for 10 min and was terminated by the addition of 20 μl of 1M NH2 OH.HCl. Protein was precipitated by boiling the samples for 3 min and was removed by centrifugation. 50 μl of the supernatant was applied to a 2.2 cm diameter disc of cellulose phosphate paper and was allowed to dry. The discs were washed in a beaker five times with water and three times with ethanol.
Non-enzymatic blank values for both histone and spermidine acetylation assays were routinely obtained by incubations of all the reactants excluding enzyme in the appropriate buffer.

histone acetylation = conditions: mammalian cells; cited from earlier work
[2] = tested on: exoerythrocyctic infection (malaria); assay: Animal studies of malaria; assay type: in vivo
murine tumors = assay: Murine tumors, alone and in combination with three cytotoxic agents; assay type: in vivo
[3] = tested on: Trypanosoma brucei brucei; assay: Replication of and infection by Trypanosoma brucei brucei; conditions: in vivo
ventral prostate gland = assay: Prostate gland secretion, growth and regrowth in rats; assay type: in vivo
tumor growth = assay: Experimental tumor models, tumor growth; assay type: in vivo; conditions: several experimental tumor models
rat hematoma cells = assay: DNA replication and proliferation of rat hematoma cells in culture; assay type: cell-based
embryogenesis = assay: Fertility, implantation and embryonic development in treated mice; assay type: in vivo
[4] = tested on: human prostate gland adenoma cells; assay: DNA replication and proliferation of human prostate gland adenoma cells in culture; assay type: cell-based
[5] = target: T1, spermidine/spermine N^1 -acetyltransferase; assay: Cytosolic spermidine acetyltransferase assay ([14C]acetyl Coenzyme A, cellulose phosphate paper); assay type: biochemical; conditions: highly purified spermidine/spermine N^1 -acetyltransferase; FIG. 1
Pneumocystis carinii = assay: Treatment of Pneumocystis carinii pneumonia; assay type: in vivo; conditions: opportunistic infection in the setting of AIDS
[6] = female mice treated prior to copulation and up to 18 days after fecundation

T1 sequence (Q6P9U6 1-171): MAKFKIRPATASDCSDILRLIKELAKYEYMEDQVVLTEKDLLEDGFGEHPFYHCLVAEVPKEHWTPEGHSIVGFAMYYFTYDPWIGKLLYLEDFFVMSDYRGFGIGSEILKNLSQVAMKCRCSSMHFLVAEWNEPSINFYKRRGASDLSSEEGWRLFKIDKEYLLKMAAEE

SMILES: NCCCN [1,3-diaminopropane]
relative effectiveness in inhibiting the acetylation of spermidine and spermine [1]: marginal superiority to putrescine

SMILES: CC(C)(COP(=O)(O)OP(=O)(O)OC[C@H]1O[C@@H](n2cnc3c(N)ncnc32)[C@H](O)[C@@H]1OP(=O)(O)O)[C@@H](O)C(=O)NCCC(=O)NCCSCC(=O)NCCCNCCCCN [N-[2-(S-Coenzyme A)acetyl] spermidine amide]
histone acetylation (histone acetylation): inhibit histone acetylation

SMILES: NCCCCN [putrescine]
relative effectiveness in inhibiting the acetylation of spermidine and spermine [1]: least effective

SMILES: CC(C)(COP(=O)(O)OP(=O)(O)OC[C@H]1O[C@@H](n2cnc3c(N)ncnc32)[C@H](O)[C@@H]1OP(=O)(O)O)[C@@H](O)C(=O)NCCC(=O)NCCSCC(=O)NCCCCNCCCCN [sym-homospermidine derivative]
potency relative to the sym-norspermidine derivative [1]: ten times less active

SMILES: NCCCCNCCCCN [sym-homospermidine]
relative effectiveness in inhibiting the acetylation of spermidine and spermine [1]: an order more effectiveness than the other two compounds

More lines, main results first:

inhibitory activity towards spermidine/spermine N^1 -acetyltransferase [1]: strong inhibitors
SMILES: CC(C)(COP(=O)(O)OP(=O)(O)OC[C@H]1O[C@@H](n2cnc3c(N)ncnc32)[C@H](O)[C@@H]1OP(=O)(O)O)[C@@H](O)C(=O)NCCC(=O)NCCSCC(=O)NCCCNCCCCN [I, N-[2-(S-Coenzyme A)acetyl] spermidine amide]
potency relative to the sym-norspermidine derivative [1]: more than an order of magnitude less potent

inhibitory activity towards spermidine/spermine N^1 -acetyltransferase [1]: strong inhibitors
SMILES: CC(C)(COP(=O)(O)OP(=O)(O)OC[C@H]1O[C@@H](n2cnc3c(N)ncnc32)[C@H](O)[C@@H]1OP(=O)(O)O)[C@@H](O)C(=O)NCCC(=O)NCCSCC(=O)NCCCCNCCCN [II, N-[2-(S-Coenzyme A)acetyl] spermidine amide]
potency relative to the sym-norspermidine derivative [1]: more than an order of magnitude less potent

inhibition of the acetylation of spermidine ([1]; crude cytosolic extracts from livers of carbon tetrachloride treated rats, FIG. 1): very potent inhibitor | inhibition of the acetylation of spermidine [5]: very potent inhibitor
SMILES: CC(C)(COP(=O)(O)OP(=O)(O)OC[C@H]1O[C@@H](n2cnc3c(N)ncnc32)[C@H](O)[C@@H]1OP(=O)(O)O)[C@@H](O)C(=O)NCCC(=O)NCCSCC(=O)NCCCNCCCN [N-[2-(S-Coenzyme A)acetyl] sym-norspermidine amide]
efficacy against exoerythrocyctic infection [2]: effective therapeutic agent | antitumor effect alone versus each cytotoxic drug (murine tumors; alone): superior to those of each cytotoxic drug | antitumor effect of combination with cytotoxic agents (murine tumors; combination with any of three cytotoxic agents): synegistic | dependence of the inhibition on substrate concentration ([1]; no full kinetic analysis): greater when the assays were carried out at lower concentrations with either substrate | T.b. brucei infection [3]: completely eliminating the infection | replication of Trypanosoma brucei brucei [3]: inhibits the replication | androgen-induced prostatic regrowth (ventral prostate gland; castrated rats): marked slowing | prostate gland secretion (ventral prostate gland; rats): effectively inhibited | growth of the ventral prostate gland (ventral prostate gland; rats, versus control group): significantly less than in the control group | tumor growth (tumor growth): Marked retardation or arrest of tumor growth | DNA replication (rat hematoma cells): inhibits DNA replication | cell proliferation (rat hematoma cells): retards proliferation | implantation (embryogenesis; [6]): no effect | subsequent embryonic development (embryogenesis; [6]): totally inhibited | fertility (embryogenesis; male and female mice treated prior to mating with untreated animals): no effect on fertility | DNA replication [4]: inhibits DNA replication | cell proliferation [4]: retards proliferation | efficacy in Pneumocystis carinii pneumonia (Pneumocystis carinii): effective in treatment

potency relative to the sym-norspermidine derivative [1]: much less active
SMILES: CC(C)(COP(=O)(O)OP(=O)(O)OC[C@H]1O[C@@H](n2cnc3c(N)ncnc32)[C@H](O)[C@@H]1OP(=O)(O)O)[C@@H](O)C(=O)NCCC(=O)NCCSCC(=O)NCCCN [amide derived from 1,3-diaminopropane]
inhibition relative to coenzyme A ([1]; FIG. 2C): marginally more inhibitory than coenzyme A

potency relative to the sym-norspermidine derivative [1]: much less active
SMILES: CC(C)(COP(=O)(O)OP(=O)(O)OC[C@H]1O[C@@H](n2cnc3c(N)ncnc32)[C@H](O)[C@@H]1OP(=O)(O)O)[C@@H](O)C(=O)NCCC(=O)NCCSCC(=O)NCCCCN [amide derived from putrescine]
